# Experimental data reported in patent US20150374673A1, “Combination Therapy for the Treatment of Nosocomial Pneumonia” (priority 2013, published 2015).
# Where “and” joins values, the source holds several entries; their conditions need not be identical. Equal entries are not always repeated.
# Key:
# P. aeruginosa [1] = assay: Neutropenic CD-1 mice with experimental pneumonia (lung infection), exposure response of ceftazidime q2h and avibactam q2h or q8h; type: in vivo, Pseudomonas aeruginosa; details: for % fT > CT1 q2 / % fT > CT1 q8 / TDD AVI q2h / TDD AVI q8h / log TDD AVI q2h / log TDD AVI q8h: Dose CAZ 16 mg/kg q2h; for % fT > CT1 q2 / % fT > CT1 q8: CT 1 mg/L; for TDD AVI q2h / TDD AVI q8h / log TDD AVI q2h / log TDD AVI q8h: static effect; for factor by which daily dose for static effect was lower q2h than q8h: with ceftazidime q2h
# Experimental: CD-1 neutropenic mice were infected with approx. 10^6 cfu in the lung by instillation through the nares under light anaesthesia. […] For avibactam the % time of the dosing interval above a virtual in vivo threshold concentration, CT, % fT>CT, were calculated (CT of 0.25, 1 and 4 mg/L).
# Outbred female CD-1 mice (Charles River, Netherlands), 4 to 5 weeks old, weighing 20 to 25 g were used in the experiments. Granulocytopenia was induced by two doses of cyclophosphamide s.c. four days (150 mg/kg) and one day (100 mg/kg) before the infection experiment.
# Neutropenic mice were infected with one P. aeruginosa strain per animal. 0.05 mL of bacterial suspension consisting of approximately 10^5-10^6 bacteria was inoculated intra-nasally with a syringe under light anaesthesia with isoflurane. […] All dosing regimens were performed in at least two animals. At t=0 h, 2 mice were humanely sacrificed to determine the initial inoculum just before starting treatment. All other animals were sacrificed at t=24 h unless the welfare of the animals indicated earlier termination was necessary, following animal welfare regulations. Lungs were taken and moved to a pre-cooled 10-mL plastic tube (Transport Tube, Omnilabo, NL) containing 2 mL phosphate buffered saline (PBS; NaCl 8.00 g/L, Na2HPO4*2 H2O 1.44 g/L, KH2PO4 0.26 g/L, pH 7.2-7.4). Subsequently lungs were grounded using an Ultra-Turrax (IKA Labortechnik, Germany). A tenfold dilution series was prepared and 3×10 μL plated (Chromagar, Biomerieux, NL) per dilution. The following day, colonies were counted and the number of cfu per lung calculated.
# This regimen was chosen because of the sensitivity to changes in effects of avibactam. The amount of avibactam administered varied in frequency and dose. […] The drug ? effect was determined as the difference between the log10 cfu values at t=24 h and t=0 h (mean value of 2 mice) expressed as dcfu. Free drug concentrations were used in all calculations. […] For avibactam % fT>CT, the % time of the dosing interval above threshold concentration CT were calculated for CT of 0.25, 1 and 4 mg/L. The CT values were chosen based on the activity of avibactam in vitro, 4 mg/L being used in susceptibility testing, but lower concentrations also being active as determined in in vitro checkerboard studies.
# [2] = system: all isolates (Enterobacteriaceae, P. aeruginosa, S. aureus, E. faecalis); assay: Checkerboard assay, mean FICI over all isolates; type: cell-based
# Experimental: All MIC determinations including those performed in the checkerboard assay were done in cation-adjusted Mueller-Hinton broth (purchased from Becton Dickinson, Oxford UK).
# Initial MIC data were determined by microbroth dilution methods as recommended by CLSI (2012b). Checkerboards were made in accordance with the method given by Pillai et. al., ? Antimicrobial Combinations in Antibiotics, LABORATORY MEDICINE (Lorian Ed., 3rd Ed. (2003)) p. 365-440 as per standard microbroth dilution tests but with agents in combination. […] A final avibactam concentration of 4 mg/L was used throughout the study. Antibacterial agents were combined into microtitre plates using the Evolution III liquid handling system.
# Checkerboard plates were inoculated and incubated in accordance with CLSI guidelines (2012b) at 35±2° C. in ambient air for 16-20 h. MICs were recorded the following day as the lowest concentration or combination of concentrations required to inhibit all visible growth. From the MIC data, FICIs were calculated for each checkerboard according to the method of Meletiadis et. al., Defining Fractional Inhibitory Concentration Index Cutoffs for Additive Interactions Based on Self-Drug Additive Combinations, Monte Carlo Simulation Analysis and in vitro-in vivo Correlation Data for Antifungal Drug Combinations Against Aspergillus fumigatus, AAC 54:602-09 (2010).
# FICI=FICA+FICB=(CA/MICA)+(CB/MICB)
# As each checkerboard gives a number of FICI values, an arithmetic mean is calculated from all values to give the mean FICI for two agents combined against one isolate. Mean FICIs were interpreted by the following criteria given by Odds (2003) which are now the accepted criteria by most journals: […]
# Gram-positive isolates = assay: MIC alone compared with MIC in presence of Cmax and 0.5×Cmax of colistin, all Gram-positive isolates; type: cell-based; details: with Cmax and 0.5×Cmax of colistin
# From the text: A mean FICI was taken from each combination checkerboard and interpreted according to accepted criteria. […] Four highly-expressed AmpC, eight extended-spectrum beta-lactamase (ESBL) including two CTX-M-15 and five KPC producing Enterobacteriaceae and P. aeruginosa were included as well as representatives from each species with basal MICs. Three S. aureus and three E. faecalis were also included.
# P. aeruginosa [3] = assay: MIC of the P. aeruginosa isolates used in the in vivo efficacy studies; type: cell-based; details: Pseudomonas aeruginosa
# [4] = q2h and q8h, strains 11 and 18, lung
# [5] = with Col, Gram-negative isolates
# [6] = with Lzd, Gram-positive isolates
# [7] = with Van, Gram-positive isolates
compound,measurement,setting,value
"NC(=O)[C@@H]1CC[C@@H]2CN1C(=O)N2OS(=O)(=O)[O-].[Na+] [avibactam, [(2S,5R)-2-carbamoyl-7-oxo-1,6-diazabicyclo[3.2.1]octan-6-yl]hydrogen sulfate]",efficacy by dosing frequency,"P. aeruginosa [1]; avibactam q2h or q8h with ceftazidime q2h, lung",q2h regimen was more efficacious than the q8h regimen
same,effect on static % fT>MIC of ceftazidime,"P. aeruginosa [1]; lung infection, all strains",reduced
same,"% fT > CT1 q2, mean","P. aeruginosa [1]; mean of strains 18 and 11 (sd 2.7), lung infection, avibactam q2h",21.6%
same,"% fT > CT1 q8, mean","P. aeruginosa [1]; mean of strains 18 and 11 (sd 3.4), lung infection, avibactam q8h",18.5%
same,overall mean % fT>CT 1 mg/L for static effect,P. aeruginosa [1]; [4],20.1%
same,range of % fT>CT 1 mg/L for static effect,P. aeruginosa [1]; [4],16.1-23.5
same,% fT > CT1 q2,"P. aeruginosa [1]; strain 11, lung infection, avibactam q2h",19.7%
same,% fT > CT1 q8,"P. aeruginosa [1]; strain 11, lung infection, avibactam q8h",20.9%
same,TDD AVI q2h,"P. aeruginosa [1]; strain 11, lung infection",45.65 mg/kg
same,TDD AVI q8h,"P. aeruginosa [1]; strain 11, lung infection",463.29 mg/kg
same,log TDD AVI q2h,"P. aeruginosa [1]; strain 11, lung infection",1.66 mg/kg
same,log TDD AVI q8h,"P. aeruginosa [1]; strain 11, lung infection",2.67 mg/kg
same,factor by which daily dose for static effect was lower q2h than q8h,"P. aeruginosa [1]; strain 11, lung",2.7
same,% fT > CT1 q2,"P. aeruginosa [1]; strain 18, lung infection, avibactam q2h",23.5%
same,% fT > CT1 q8,"P. aeruginosa [1]; strain 18, lung infection, avibactam q8h",16.1%
same,TDD AVI q2h,"P. aeruginosa [1]; strain 18, lung infection",56.65 mg/kg
same,TDD AVI q8h,"P. aeruginosa [1]; strain 18, lung infection",150.57 mg/kg
same,log TDD AVI q2h,"P. aeruginosa [1]; strain 18, lung infection",1.75 mg/kg
same,log TDD AVI q8h,"P. aeruginosa [1]; strain 18, lung infection",2.18 mg/kg
same,factor by which daily dose for static effect was lower q2h than q8h,"P. aeruginosa [1]; strain 18, lung",10.1
same,% fT>CT 1 mg/L estimates for stasis over 24 h,"P. aeruginosa [1]; the other two of strains 7, 5, 19 and 1 (not 1 and 19), ceftazidime q2h, lung",21.4% and 19.4%
same,% fT>CT 1 mg/L estimates,"P. aeruginosa [1]; two control strains, lung",22.4% and 21.6%
"CC(C)(O/N=C(\C(=O)N[C@@H]1C(=O)N2C(C(=O)[O-])=C(C[n+]3ccccc3)CS[C@H]12)c1csc(N)n1)C(=O)O [ceftazidime, (6R,7R)-7-[[(2Z)-2-(2-amino-1,3-thiazol-4-yl)-2-(1-hydroxy-2-methyl-1-oxopropan-2-yl)oxyiminoacetyl]amino]-8-oxo-3-(pyridin-1-ium-1-ylmethyl)-5-thia-1-azabicyclo[4.2.0]oct-2-ene-2-carboxylate pentahydrate]","interaction, synergistic or antagonistic, with any other antibacterial agent","[2]; tobramycin, levofloxacin, vancomycin, linezolid, tigecycline, colistin",No interaction
same,Mean FICI range high,[2]; [5],1.66
same,Mean FICI range low,[2]; [5],0.85
same,Mean FICI range high,"[2]; with Lev, all isolates",1.33
same,Mean FICI range low,"[2]; with Lev, all isolates",0.78
same,Mean FICI range high,[2]; [6],1.64
same,Mean FICI range low,[2]; [6],0.99
same,Mean FICI range high,"[2]; with Tig, all isolates",1.99
same,Mean FICI range low,"[2]; with Tig, all isolates",0.73
same,Mean FICI range high,"[2]; with Tob, all isolates",1.60
same,Mean FICI range low,"[2]; with Tob, all isolates",0.64
same,Mean FICI range high,[2]; [7],1.63
same,Mean FICI range low,[2]; [7],0.99
same,MIC alone and in combination,Gram-positive isolates,remained within one doubling dilution in all cases
same,MIC,P. aeruginosa [3]; P. aeruginosa PSA 1-25,128 µg/mL
same,MIC,P. aeruginosa [3]; P. aeruginosa PSA 1-29,32 µg/mL
same,MIC,P. aeruginosa [3]; P. aeruginosa PSA 2-69,64 µg/mL
same,MIC,P. aeruginosa [3]; P. aeruginosa PSA 3-9,> 128 µg/mL
same,MIC,P. aeruginosa [3]; P. aeruginosa PSA 4-32,32 µg/mL
same,MIC,P. aeruginosa [3]; P. aeruginosa PSA 4-36,64 µg/mL
same,MIC,P. aeruginosa [3]; P. aeruginosa PSA 4-39,32 µg/mL
same,MIC,P. aeruginosa [3]; P. aeruginosa PSA 4-84,64 µg/mL
same,MIC,P. aeruginosa [3]; P. aeruginosa PSA 7-6,128 µg/mL
same,MIC,P. aeruginosa [3]; P. aeruginosa PSA 8-16,64 µg/mL
same,MIC,P. aeruginosa [3]; P. aeruginosa PSA 11-54,32 µg/mL
same,MIC,P. aeruginosa [3]; P. aeruginosa PSA 14-28,128 µg/mL
same,MIC,P. aeruginosa [3]; P. aeruginosa PSA 22,64 µg/mL
same,MIC,P. aeruginosa [3]; P. aeruginosa PSA 24-2,32 µg/mL
same,MIC,P. aeruginosa [3]; P. aeruginosa PSA 28-19,128 µg/mL
same,MIC,P. aeruginosa [3]; P. aeruginosa PSA 37-8,64 µg/mL
same,MIC,P. aeruginosa [3]; P. aeruginosa PSA 856,8 µg/mL
same,MIC,P. aeruginosa [3]; P. aeruginosa PSA 968,32 µg/mL
same,MIC,P. aeruginosa [3]; P. aeruginosa PSA 971,16 µg/mL
same,MIC,P. aeruginosa [3]; P. aeruginosa PSA 1382,128 µg/mL
same,MIC,P. aeruginosa [3]; P. aeruginosa PSA 1383,64 µg/mL
same,MIC,P. aeruginosa [3]; P. aeruginosa PSA 1384,64 µg/mL
same,MIC,P. aeruginosa [3]; P. aeruginosa PSA 1386,128 µg/mL
same,MIC,P. aeruginosa [3]; P. aeruginosa PSA 1387,32 µg/mL
same,MIC,P. aeruginosa [3]; P. aeruginosa PSA 1388,128 µg/mL
same,MIC,P. aeruginosa [3]; P. aeruginosa PSA 1389,64 µg/mL
same,MIC,P. aeruginosa [3]; P. aeruginosa PSA 1391,128 µg/mL
same,MIC,P. aeruginosa [3]; P. aeruginosa PSA 1394,64 µg/mL
